# Reference: patent US11331299B2, “Medicinal use of serrulatane diterpenes” (The University of Sydney, priority 2016, dated 2022)
# Like-named read-outs stand apart in the source and are kept apart here.
# Legend:
# [1] = biological target: PIM1(h) (histone H3 full length substrate) (Homo sapiens, UniProt P11309); assay: Epigenetic enzyme assay, Kinases; format: biochemical; settings: read-out: % Inhibition of Control Values
# [2] = biological target: T1, Angiotensin Converting Enzyme (Oryctolagus cuniculus, UniProt P12822); assay: Peptidase, Angiotensin Converting Enzyme; format: biochemical, Rabbit; settings: assay year 2015
# T1 construct: from tissue; host or cells: rabbit lung
# T1 sequence (P12822 34-1310): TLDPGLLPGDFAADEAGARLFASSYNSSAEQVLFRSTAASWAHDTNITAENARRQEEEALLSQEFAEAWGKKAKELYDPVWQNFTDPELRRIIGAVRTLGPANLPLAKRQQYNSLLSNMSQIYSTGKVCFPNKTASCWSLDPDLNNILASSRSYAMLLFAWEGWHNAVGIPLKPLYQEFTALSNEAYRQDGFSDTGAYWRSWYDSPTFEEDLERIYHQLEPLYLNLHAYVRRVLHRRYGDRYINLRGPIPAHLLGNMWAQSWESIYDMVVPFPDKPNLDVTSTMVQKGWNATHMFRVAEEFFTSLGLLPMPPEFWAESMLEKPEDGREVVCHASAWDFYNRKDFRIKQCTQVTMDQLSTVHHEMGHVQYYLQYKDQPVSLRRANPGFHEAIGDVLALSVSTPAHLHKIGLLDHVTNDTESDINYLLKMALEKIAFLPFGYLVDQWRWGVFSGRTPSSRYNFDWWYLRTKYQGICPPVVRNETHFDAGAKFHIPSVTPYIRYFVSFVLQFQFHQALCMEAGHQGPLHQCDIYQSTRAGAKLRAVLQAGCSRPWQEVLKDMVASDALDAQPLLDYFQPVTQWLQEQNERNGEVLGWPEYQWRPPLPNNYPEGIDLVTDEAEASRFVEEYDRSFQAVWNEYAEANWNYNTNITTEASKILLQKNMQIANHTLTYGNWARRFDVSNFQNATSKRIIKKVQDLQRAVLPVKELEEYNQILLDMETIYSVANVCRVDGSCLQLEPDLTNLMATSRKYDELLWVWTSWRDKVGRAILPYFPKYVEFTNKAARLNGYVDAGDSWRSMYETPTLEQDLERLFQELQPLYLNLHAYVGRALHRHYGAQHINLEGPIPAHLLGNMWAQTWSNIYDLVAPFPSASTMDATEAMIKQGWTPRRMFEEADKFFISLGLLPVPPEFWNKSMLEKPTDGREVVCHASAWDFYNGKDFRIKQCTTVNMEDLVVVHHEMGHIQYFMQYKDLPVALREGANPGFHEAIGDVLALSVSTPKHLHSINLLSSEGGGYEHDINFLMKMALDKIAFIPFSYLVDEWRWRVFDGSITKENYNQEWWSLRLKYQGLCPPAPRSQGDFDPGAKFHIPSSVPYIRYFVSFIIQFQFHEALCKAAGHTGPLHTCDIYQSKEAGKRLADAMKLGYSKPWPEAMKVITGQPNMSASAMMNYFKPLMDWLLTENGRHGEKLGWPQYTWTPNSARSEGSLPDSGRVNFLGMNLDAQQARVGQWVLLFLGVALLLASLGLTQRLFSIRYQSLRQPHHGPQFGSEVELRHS
# Protocol: (§1) The in vitro pharmacological studies were conducted by Eurofins PanLab (Taiwan) using the parameters shown in Table 13 with respect to appropriate literature references.
# BRD4(2) (h) bromodomain = biological target: T2, BRD4(2) (h) bromodomain (Homo sapiens, UniProt O60885); assay: Epigenetic binding assay, Bromodomain; settings: for inhibition at 10 µM: read-out: % Inhibition of Control Specific Binding
# T2 construct: Bromodomain
# Angiotensin, AT1/ACE = assay: Angiotensin, AT1/ACE, guinea pig ileum (isotonic); design: species or system Dunkin Hartley Guinea pig; settings: 10 μM; assay year 2015
# Protocol: as §1
# BRD3(2) (h) bromodomain = biological target: T3, BRD3(2) (h) bromodomain (Homo sapiens, UniProt Q15059); assay: Epigenetic binding assay, Bromodomain; settings: 10 μM; read-out: % Inhibition of Control Specific Binding
# T3 construct: Bromodomain
# CBX7 (h) chromodomain = biological target: T4, CBX7 (h) chromodomain (Homo sapiens, UniProt O95931); assay: Epigenetic binding assay, Chromodomain; settings: read-out: % Inhibition of Control Specific Binding
# T4 construct: Recognition and specificity determinants of the human cbx chromodomains; Eurofins CEREP (France), contract laboratory
# T4 sequence (O95931 11-69 limits assumed): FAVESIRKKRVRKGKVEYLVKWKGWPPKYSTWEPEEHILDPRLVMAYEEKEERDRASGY
# BAZ2A (h) bromodomain = biological target: T5, BAZ2A (h) bromodomain (Homo sapiens, UniProt Q9UIF9); assay: Epigenetic binding assay, Bromodomain; settings: read-out: % Inhibition of Control Specific Binding
# T5 construct: Bromodomain
# T5 sequence (Q9UIF9 1793-1897 limits assumed): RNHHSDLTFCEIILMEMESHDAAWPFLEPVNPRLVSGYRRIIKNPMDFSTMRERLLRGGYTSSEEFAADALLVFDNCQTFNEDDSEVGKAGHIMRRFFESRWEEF
# ASH1L (h) bromodomain = biological target: T6, ASH1L (h) bromodomain (Homo sapiens, UniProt Q9NR48); assay: Epigenetic binding assay, Bromodomain; settings: for inhibition at 10 µM: read-out: % Inhibition of Control Specific Binding
# T6 construct: ASH1L (h) bromodomain
# Histamine H1 = biological target: T7, Histamine H1 (Homo sapiens, UniProt P35367); assay: Histamine H1 radio ligand binding
# T7 construct: expressed in transfected cells; host or cells: Chem-1 cells
# Protocol: as §1
# Angiotensin AT2 = biological target: T8, Angiotensin AT2 (Homo sapiens, UniProt P50052); assay: Angiotensin AT2 radio ligand binding; settings: assay year 2015, read-out: % Control Response
# T8 construct: expressed in transfected cells; host or cells: CHO-K1 cells
# T8 sequence (P50052 1-363): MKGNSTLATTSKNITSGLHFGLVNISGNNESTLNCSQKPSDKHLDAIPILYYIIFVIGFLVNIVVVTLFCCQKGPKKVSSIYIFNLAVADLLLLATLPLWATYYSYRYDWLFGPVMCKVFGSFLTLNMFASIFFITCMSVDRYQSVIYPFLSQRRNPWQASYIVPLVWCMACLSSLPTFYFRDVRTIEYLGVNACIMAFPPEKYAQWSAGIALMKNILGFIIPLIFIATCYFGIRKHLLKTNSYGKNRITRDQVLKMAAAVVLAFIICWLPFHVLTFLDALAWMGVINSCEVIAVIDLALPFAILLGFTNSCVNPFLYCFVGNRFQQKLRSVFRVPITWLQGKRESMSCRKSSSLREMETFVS
# Protocol: as §1
# [3] = assay year 2014, read-out: % Control Response
# [4] = assay year 2015, read-out: % Control Response
# Sequence of PIM1(h) (histone H3 full length substrate) (P11309 whole entry): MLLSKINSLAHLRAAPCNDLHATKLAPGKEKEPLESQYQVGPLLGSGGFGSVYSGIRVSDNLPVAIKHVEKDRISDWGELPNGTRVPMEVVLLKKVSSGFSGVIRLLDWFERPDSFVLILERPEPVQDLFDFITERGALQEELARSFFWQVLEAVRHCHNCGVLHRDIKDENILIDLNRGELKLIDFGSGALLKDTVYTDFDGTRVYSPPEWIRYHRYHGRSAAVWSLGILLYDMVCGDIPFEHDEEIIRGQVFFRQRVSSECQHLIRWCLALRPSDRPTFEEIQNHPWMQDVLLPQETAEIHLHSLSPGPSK
# T3 sequence (Q15059 306-415 limits assumed): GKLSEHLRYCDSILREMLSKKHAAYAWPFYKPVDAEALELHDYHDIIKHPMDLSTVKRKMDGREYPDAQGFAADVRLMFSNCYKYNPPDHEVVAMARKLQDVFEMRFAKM
# T7 sequence (P35367 whole entry): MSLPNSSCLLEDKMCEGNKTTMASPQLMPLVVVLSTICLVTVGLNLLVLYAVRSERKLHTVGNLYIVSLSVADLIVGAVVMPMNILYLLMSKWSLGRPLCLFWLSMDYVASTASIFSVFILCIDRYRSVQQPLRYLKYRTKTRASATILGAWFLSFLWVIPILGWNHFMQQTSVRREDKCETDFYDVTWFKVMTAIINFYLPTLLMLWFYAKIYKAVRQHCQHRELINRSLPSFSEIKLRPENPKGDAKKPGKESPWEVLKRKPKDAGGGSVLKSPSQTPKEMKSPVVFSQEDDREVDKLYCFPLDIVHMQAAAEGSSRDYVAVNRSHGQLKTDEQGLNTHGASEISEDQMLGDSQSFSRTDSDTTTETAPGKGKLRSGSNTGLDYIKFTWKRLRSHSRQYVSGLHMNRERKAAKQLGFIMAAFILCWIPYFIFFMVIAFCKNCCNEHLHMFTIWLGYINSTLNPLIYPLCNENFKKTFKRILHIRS
SMILES,inhibition at 10 µM [1] [%],% control response at 10 µM [2] [%],inhibition at 10 µM (BRD4(2) (h) bromodomain; 10 μM) [%],"% Control Response, Agonist (Angiotensin, AT1/ACE) [%]","% Control Response, Antagonist (Angiotensin, AT1/ACE) [%]",inhibition at 10 µM (BRD3(2) (h) bromodomain) [%],inhibition at 10 µM (CBX7 (h) chromodomain) [%],inhibition at 10 µM (BAZ2A (h) bromodomain) [%],inhibition at 10 µM (ASH1L (h) bromodomain; 10 μM) [%],remaining activity at 10 µM (Histamine H1; [3]) [%],remaining activity at 10 µM (Histamine H1; [4]) [%],remaining activity at 10 µM (Angiotensin AT2) [%],further results
"CC(C)=CCC[C@H](CO)[C@@H]1CC[C@@H](C)c2c1cc(C)c(O)c2O [Compound 1, 7,8,18-trihydroxyserrulat-14-ene]",22,0,76,0,34,35,25,56,95,85,97,29,"% Inhibition of Control Specific Binding (BRD4(2) (h) bromodomain; 10 μM): significant inhibitory activity; IC50 (BRD4(2) (h) bromodomain; Table 9, inhibition/concentration-response curve): 5.6 µM; % Inhibition of Control Specific Binding (ASH1L (h) bromodomain; 10 μM): significant inhibitory activity; inhibition of binding, 1st (ASH1L (h) bromodomain; 3.0E−05M): 100.6; inhibition of binding, 2nd (ASH1L (h) bromodomain; 3.0E−05M): 99.6; inhibition of binding, Mean (ASH1L (h) bromodomain; 3.0E−05M): 100.1; inhibition of binding, 1st (ASH1L (h) bromodomain; 3.0E−06M): 17.0; inhibition of binding, 2nd (ASH1L (h) bromodomain; 3.0E−06M): 28.0; inhibition of binding, Mean (ASH1L (h) bromodomain; 3.0E−06M): 22.5; inhibition of binding, 1st (ASH1L (h) bromodomain; 3.0E−07M): −0.2; inhibition of binding, 2nd (ASH1L (h) bromodomain; 3.0E−07M): −2.9; inhibition of binding, Mean (ASH1L (h) bromodomain; 3.0E−07M): −1.6; inhibition of binding, 1st (ASH1L (h) bromodomain; 3.0E−08M): −12.3; inhibition of binding, 2nd (ASH1L (h) bromodomain; 3.0E−08M): 1.8; inhibition of binding, Mean (ASH1L (h) bromodomain; 3.0E−08M): −5.2; inhibition of binding, 1st (ASH1L (h) bromodomain; 3.0E−09M): −2.6; inhibition of binding, 2nd (ASH1L (h) bromodomain; 3.0E−09M): −8.2; inhibition of binding, Mean (ASH1L (h) bromodomain; 3.0E−09M): −5.4; IC50 (ASH1L (h) bromodomain; Table 9, inhibition/concentration-response curve, read-out: IC50): 4.2 µM"
"CC(C)=CCC[C@@H]1COc2c(C)cc(O)c3c2[C@H]1CC[C@H]3C [Compound 3, 5,18-epoxy-8-hydroxyserrulat-14-ene]",5,-3,13,0,17,1,43,16,42,–,50,9,–
"CC(C)=CCC[C@@H]1C(O)Oc2c(C)cc(O)c3c2[C@H]1CC[C@H]3C (stereo partly drawn) [Compound 2, 5,18-epoxyserrulat-14-en-8,18-diol]",11,-3,16,0,10,25,33,17,59,66,60,18,–
